Experiments:
[1] = Toxicity study, i.p. injection; assay type: in vivo, Sabra mice; conditions: mouse, in vivo, ip, single, Sabra mice
Protocol: (§1) The toxicity of compound B was tested by injecting 75 mg/kg, 150 mg/kg, 300 mg/kg, 500 mg/kg, 700 mg/kg and 1000 mg/kg i.p. to groups of eight Sabra mice. In addition, a repetitive i.p. injection of 75 mg/kg/day over a period of two weeks was conducted on eight mice. The mice were monitored for mortality and for chances in their weight compared to a saline injected control group.
(§2) The toxicity of compound B was tested by injecting 75 mg/kg, 150 mg/kg, 300 mg/kg, 500 mg/kg, 700 mg/kg and 1000 mg/kg i.p. to groups of eight Sabra mice.

[2] = test system: Sabra mice; experiment: Toxicity study, i.p. injection; assay type: in vivo
Protocol: as §1, §2

[3] = Superoxide radical assay (xanthine/xanthine oxidase, cyt C reduction)
Protocol: Superoxide radicals were produced from reactions of xanthine/xanthine oxidase [Mccord, J. M. and Fridovich I. (1969) J. Biol. Chem. 244:6049-6055]. The enzyme unit was adjusted to produce a linear flux of superoxide radicals which gave a slope of 0.12 OD/min at 550 nm. by reduction of cyt-C.
Superoxide radicals were produced by the xanthine/xanthine oxidase system, and the prevention of cyt C reduction by compound B was measured (FIG. 8). […] The spontaneous second order reaction rate constant of superoxide with compound B was calculated from the initial slope to be 8.1*10^2 M^-1 S^-1.

[4] = Lipid hydroperoxides in partially oxidized SUV liposomes; conditions: 5 mM, after 24 h
Protocol: SUV liposomes were prepared from egg lecitin at 10% lipid concentration in a 50 ml HEPES buffer pH=6.9 according to already published procedures [Lichtenberg, D. and Barenholz. Y. (1988) Methods of Biochemical Analysis 33:337-462].
Lipid hydroperoxides were monitored by a modified micromolar sensitive spectroscopic method [Siddiqi, A. M. and Tappel, A. L. (1955) Chemist Analyst 44:52]. 50λ of lipids (liposomes or emulsion) were dissolved in 1 ml ethanol. 50λ of 50% potassium iodide solution were then added and the mixture was incubated for half an hour in the dark. The developed color was read in a spectrophotometer at 400 nm.
SUV Liposomes (12.5 mM) with certain degrees of oxidation were incubated with 5 mM AMTP molecules for period of 24 h. Peroxidation number (PN) was measured with potassium iodide in ethanol. AMTPs were able to decompose lipid hvdroperoxide and to reduce the peroxidation number (PN).

[5] = test system: BSA; experiment: BSA's cystine oxidation by NaOCl (DTNB); conditions: NaOCl 1 mM
Protocol: BSA (0.5 mg/ml) in Imi HEPES buffer pH=7.2(50 mM) was incubated with sodium hypochlorite (1 mM) for 15 min. The protein was dialyzed for 2 h against 2×500 vol of HEPES buffer to remove free sodium hypochlorite. 301 DTNB 0.015 M in water was then added to the protein solution and color was measured at 420 nm. AMTPs were added to the protein sample to protect it against sodium hypochlorite [Hazell and Stocker, ibid.].
BSA's tryptophan oxidation and BSA's cystine oxidation were the models for protein damage by NaOCl (FIG. 11 and FIG. 12 respectively). BSA fluorescence intensity decreased following oxidative stress of NaOCI (1 mM). […] Out of the three AMTP compounds the most lipophilic (A) was best in preventing the damage and provided 94% protection on the protein.

**Q.** What does the source list for `CCOP(=S)(NCCO)OCC` [Compound B, 2-hydroxyamido diethyithionophosphate]?
**A.** LD50 at 720 h [1]: ~700 mg/kg; mortality ([2]; i.p., doses up to 500 mg/kg): No mortality was observed; changes in average weight ([2]; i.p., up to 500 mg/kg, monitoring of 30 days, vs saline control): nor were there any significant changes; mortality or weight differentiation ([2]; repetitive i.p. 75 mg/kg/day, two weeks): did not lead to any mortality or weight differentiation; reduction of cyt C by compound itself [3]: did not reduce cyt C; second order reaction rate constant with superoxide ([3]; calculated from the initial slope): 8.1*10^2 M^-1 S^-1; reduction of PN, comparative [4]: more effective in reducing PN; protection of BSA's cystines [5]: strong protection

Source: patent publication US6200962A, “Thionophosphate derivatives, process for their preparation and pharmaceutical compositions containing them” (priority 1994, dated 2001)
